# Test results as given in patent US12465590B2, “Oxalamido-substituted tricyclic inhibitors of hepatitis b virus” (priority 2019, dated 2025).
# What was measured:
# Conditions in all cases: Hepatitis B virus, HepG2, read-out: EC50 ± StD (nM)
# [1] = system: HBV core protein variant L37Q; test: Antiviral effect against core variants, transfected HepG2 cells; assay type: cell-based, HBV genotype D
# Experimental: (§1) HepG2 cell line was used for HBV genotypes and core variants inhibition assays. HepG2 cell line is maintained in DMEM supplemented with 10% of fetal bovine serum, 1% of glutamine and 1% of penicillin/streptomycin.
# (§2) HepG2 cells were seeded in polylysine coated 96 multiwell plates at a density of 2*10^4 cells/well and incubated overnight at 37° C. The following day cells were transfected with the HBV plasmids (100 ng/well) using the Lipofectamine 3000 Reagent (Thermo Fisher Scientific) and following manufacturer instructions. After 5 h transfection mixtures were removed and cells were treated with serially diluted compounds in 0.5% DMSO at 8-point dose-response as previously described. After 96 hours of incubation at 37° C. with compound the supernatants were collected, centrifuged for cell debris clarification and incubated with DNase I amplification grade 1 Unit/50 μl (Sigma) for 1 h at 37° C. to allow plasmid input digestion. Quantification of extracellular HBV DNA with direct qPCR was performed as previously described. To avoid unspecific detection of HBV plasmid and to confirm plasmid digestion, specific primers designed across plasmid backbone and HBV sequence were added as controls (HBV-CNT-gt-F:5′-[…]-3′ (SEQ ID No. 3), HBV-CNT-gt-R:5′-[…]-3′(SEQ ID No. 4)). Antiviral activity data for each genotype are reported as EC50 mean value. Moreover the EC50 shift value is indicated, corresponding to the ratio between the observed EC50 and the EC50 for genotype D, which is used as reference genotype (see RESULTS, Table 2 legend). Excel and Graphpad Prism programs are typically used for data elaboration and EC50 calculation.
# (§3) The experimental procedure for antiviral effect against HBV core protein variants was similar to the one previously described for antiviral effect on HBV A-E Genotypes. Different core point mutations (F23Y, F110I, I105T, L37Q, T33N, T33P, T128I, V124G, Y118F) were selected based on their ability to reduce potency of CAMs currently in development (literature data) and introduced in the plasmids containing the HBV genome of genotype D (pcDNA3.1-HBV1.1-D, described above). The following list of plasmids was generated by site-directed mutagenesis of the parent plasmid pcDNA3.1-HBV1.1-D (p26 in J Virol. 2010, 84, 3879-88): pcDNA3.1-HBV1.1-D-CoreF23Y, pcDNA3.1-HBV1.1-D-CoreF110I, pcDNA3.1-HBV1.1-D-Core 1105 T, pcDNA3.1-HBV1.1-D-CoreL37Q, pcDNA3.1-HBV1.1-D-CoreT33N, pcDNA3.1-HBV1.1-D-CoreT33P, pcDNA3.1-HBV1.1-D-CoreT128I, pcDNA3.1-HBV1.1-D-CoreV124G, pcDNA3.1-HBV1.1-D-CoreY118F (point mutations in the nucleotide codon relative to the indicated core aminoacid substitution are the followings: TTC/TAC for F23Y, TTT/ATT for F110I, ATT/ACT for I105T, CTG/CAG for L37Q, ACC/AAC for T33N, ACC/CCC for T33P, ACT/ATT for T128I, GTG/GGG for V124G, TAT/TTT for Y118F). Antiviral activity data for each variant are reported as EC50 mean value and EC50 shift compared to wild type (see RESULTS, Table 4 legend). Excel and Graphpad Prism programs are typically used for data elaboration and EC50 calculation.
# [2] = system: HBV core protein variant T128I; test: as above; assay type: cell-based, HBV genotype D
# Experimental: as §1, §2, §3
# [3] = system: HBV core protein variant F23Y; test: as above; assay type: cell-based, HBV genotype D
# Experimental: as §1, §2, §3
# [4] = system: HBV core protein variant Y118F; test: as above; assay type: cell-based, HBV genotype D
# Experimental: as §1, §2, §3
# [5] = system: HBV core protein variant T33P; test: as above; assay type: cell-based, HBV genotype D
# Experimental: as §1, §2, §3
# [6] = system: HBV core protein variant I105T; test: as above; assay type: cell-based, HBV genotype D
# Experimental: as §1, §2, §3
# [7] = system: HBV core protein variant V124G; test: as above; assay type: cell-based, HBV genotype D
# Experimental: as §1, §2, §3
# [8] = system: HBV core protein variant T33N; test: as above; assay type: cell-based, HBV genotype D
# Experimental: as §1, §2, §3
# [9] = system: HBV core protein variant F110I; test: as above; assay type: cell-based, HBV genotype D
# Experimental: as §1, §2, §3
# HBV genotype B2 = test: Antiviral effect on HBV genotypes, transiently transfected HepG2 cells; assay type: cell-based
# Source text: as §1
# (§4) For antiviral effect on HBV A-E genotypes, HepG2 cell line and DNA plasmids expressing HBV genome of different genotypes, from A to E, were used. HepG2 were transiently transfected with plasmid DNA harboring 1.1-mer-overlength genomic sequences of each HBV genotypes A to E isolates cloned into the pcDNA3.1/Zeo(−) vector as described in J Virol. 2010, 84, 3879-88 (https://doi.org/10.1128/JVI.02528-09). Each plasmid contains the 1.1×HBV genome under the control of a CMV promoter. The list of plasmid used is the following: pcDNA3.1-HBV1.1-A2 (HBV genotype A2), pcDNA3.1-HBV1.1—B2 (HBV genotype B2), pcDNA3.1-HBV1.1—C2 (HBV genotype C2), pcDNA3.1-HBV1.1-D (described as p26 in the above reference, HBV genotype D), pcDNA3.1-HBV1.1-E (HBV genotype E). Methods of generating plasmids are well know in the art (as for example in Viruses 2020, 12, 353, doi:10.3390/v12030353; Antiviral Research 144 (2017) 205-215, http://dx.doi.org/10.1016/j.antiviral.2017.06.016) and the selection of a suitable method is not a limitation on the present invention.
# as §2
# HBV genotype C2 = test: as above; assay type: cell-based
# Source text: as §1, §4, §2
# HBV genotype E = test: as above; assay type: cell-based
# Source text: as §1, §4, §2
# HBV genotype A2 = test: as above; assay type: cell-based
# Source text: as §1, §4, §2
# HBV genotype D = test: as above; assay type: cell-based
# Source text: as §1, §4, §2
smiles,measurement,setting,value
"Cc1cc(NC(=O)c2c3c(cn2C)S(=O)(=O)N[C@H]2CN(C(=O)C(=O)N[C@@H](C)C(F)(F)F)C[C@H]2CO3)ccc1F [Example E15, (3aR,10aR)—N-(4-fluoro-3-methylphenyl)-7-methyl-2-(2-oxo-2-(((S)-1,1,1-trifluoropropan-2-yl)amino)acetyl)-2,3,3a,4,10,10a-hexahydro-1H,7H-dipyrrolo[3,4-b:3′,4′-f][1,4,5]oxathiazocine-8-carboxamide 5,5-dioxide]",EC50,[1],8.72 ± 3.76 nM
same,EC50,[2],8.91 ± 5.85 nM
same,EC50,[3],6.33 ± 0.94 nM
same,EC50,[4],6.37 ± 1.84 nM
same,EC50,[5],1.68 ± 0.37 nM
same,EC50,[6],3.22 ± 1.45 nM
same,EC50,[7],6.8 ± 2.08 nM
same,EC50,[8],46.9 ± 21.1 nM
same,EC50,[9],1.12 ± 0.3 nM
same,EC50,HBV genotype B2,1.58 ± 0.7 nM
same,EC50,HBV genotype C2,0.72 ± 0.55 nM
same,EC50,HBV genotype E,1.79 ± 1.08 nM
same,EC50,HBV genotype A2,2.14 ± 0.43 nM
same,EC50,HBV genotype D,0.94 ± 0.49 nM
